Assay results published in patent US8536407B2, “Heat resistant plants and plant tissues comprising a variant adenosine diphosphate glucose pyrophosphorylase small subunit protein and methods of use thereof” (University of Florida Research Foundation, Inc., priority 2008, dated 2013).
“Also recorded” adds a separate entry of the source.

What was measured:
[1] = target: T1, maize endosperm ADP-glucose pyrophosphorylase (AGPase) variant BT2-TI/SH2, small subunit BT2 with Thr462 to Ile (TI, SEQ ID NO:2) complexed with wild type SH2 (Zea mays, UniProt P55241+Q947C0, T462I); experiment: Kinetic and allosteric characterization of purified recombinant AGPase, forward direction (BT2-TI/SH2); assay type: biochemical
T1 sequence (Q947C0 1-475 T462I): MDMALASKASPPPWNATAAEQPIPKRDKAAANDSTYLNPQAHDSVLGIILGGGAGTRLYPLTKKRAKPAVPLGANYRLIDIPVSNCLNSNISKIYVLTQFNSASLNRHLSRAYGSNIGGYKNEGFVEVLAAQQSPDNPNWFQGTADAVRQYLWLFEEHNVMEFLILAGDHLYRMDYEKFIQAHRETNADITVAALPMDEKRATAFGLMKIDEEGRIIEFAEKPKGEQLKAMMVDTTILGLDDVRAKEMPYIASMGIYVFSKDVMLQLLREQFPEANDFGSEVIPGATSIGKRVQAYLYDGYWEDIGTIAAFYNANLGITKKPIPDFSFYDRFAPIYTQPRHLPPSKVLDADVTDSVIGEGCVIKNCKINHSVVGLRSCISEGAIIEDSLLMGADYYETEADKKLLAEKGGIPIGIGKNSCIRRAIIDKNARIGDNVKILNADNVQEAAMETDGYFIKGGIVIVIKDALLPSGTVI
T1 sequence (P55241 46-516): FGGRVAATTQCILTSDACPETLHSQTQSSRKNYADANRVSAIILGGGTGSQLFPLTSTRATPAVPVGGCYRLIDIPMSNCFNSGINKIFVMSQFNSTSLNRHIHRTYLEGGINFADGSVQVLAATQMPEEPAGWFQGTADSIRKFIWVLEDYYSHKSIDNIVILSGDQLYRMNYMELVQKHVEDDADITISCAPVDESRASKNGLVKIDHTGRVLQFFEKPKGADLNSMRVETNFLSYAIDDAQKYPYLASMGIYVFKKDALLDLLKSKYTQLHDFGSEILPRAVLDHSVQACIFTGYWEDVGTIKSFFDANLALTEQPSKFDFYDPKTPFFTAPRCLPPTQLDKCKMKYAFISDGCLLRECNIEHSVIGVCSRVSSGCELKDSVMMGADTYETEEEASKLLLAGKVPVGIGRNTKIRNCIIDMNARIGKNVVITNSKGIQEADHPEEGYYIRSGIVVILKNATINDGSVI
Description: (§1) The following steps were conducted at 4° C.
(§2) The reaction was stopped by boiling for 2 min. […] NADH concentration was estimated by absorbance at 340 nm.
A mutant Bt2 library was created by error-prone PCR. The mutational load was ˜2 non-synonymous mutations per clone (Georgelis et al. 2007). The mutants were expressed in E. coli along with a wildtype Sh2 gene. Approximately 50,000 colonies were screened for glycogen production. Ten dark staining colonies were picked. The two darkest staining Bt2 mutants were sequenced. Both had the same non-synonymous mutation resulting in a change of amino acid 462 from threonine to isoleucine (TI). The threonine in that position is absolutely conserved among the higher plant small subunits (data not shown).
Ki's are expressed as mean (95% confidence interval). All other values are expressed as mean±standard deviation.

[2] = test system: ADP-glucose pyrophosphorylase (AGPase) variant MP-TI/SH2, maize/potato mosaic small subunit MP with the TI mutation (threonine to isoleucine at position …); experiment: Kinetic and allosteric characterization of purified recombinant AGPase, forward direction (MP-TI/SH2); assay type: biochemical, maize (Zea mays) / potato tuber; settings: varying ATP, mean±standard deviation
Description: as §1, §2
(§3) All other values are expressed as mean±standard deviation.

[3] = target: T2, maize endosperm ADP-glucose pyrophosphorylase (AGPase) BT2/SH2, wild type small subunit BT2 complexed with wild type large subunit SH2 (Zea mays, UniProt P55241+Q947C0); experiment: Kinetic and allosteric characterization of purified recombinant AGPase, forward direction (BT2/SH2); assay type: biochemical
T2 sequence (Q947C0 1-475): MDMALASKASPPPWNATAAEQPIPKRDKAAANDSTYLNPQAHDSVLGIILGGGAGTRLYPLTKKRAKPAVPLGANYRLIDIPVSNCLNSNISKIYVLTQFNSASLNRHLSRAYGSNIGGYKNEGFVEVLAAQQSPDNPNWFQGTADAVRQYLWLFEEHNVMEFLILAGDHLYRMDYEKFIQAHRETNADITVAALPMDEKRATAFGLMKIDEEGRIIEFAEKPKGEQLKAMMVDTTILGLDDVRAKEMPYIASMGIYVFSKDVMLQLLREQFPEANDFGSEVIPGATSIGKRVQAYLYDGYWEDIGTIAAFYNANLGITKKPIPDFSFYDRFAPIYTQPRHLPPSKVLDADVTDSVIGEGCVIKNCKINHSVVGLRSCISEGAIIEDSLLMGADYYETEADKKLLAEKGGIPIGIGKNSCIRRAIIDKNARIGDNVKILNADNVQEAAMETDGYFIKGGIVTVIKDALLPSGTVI
T2 sequence (P55241 46-516): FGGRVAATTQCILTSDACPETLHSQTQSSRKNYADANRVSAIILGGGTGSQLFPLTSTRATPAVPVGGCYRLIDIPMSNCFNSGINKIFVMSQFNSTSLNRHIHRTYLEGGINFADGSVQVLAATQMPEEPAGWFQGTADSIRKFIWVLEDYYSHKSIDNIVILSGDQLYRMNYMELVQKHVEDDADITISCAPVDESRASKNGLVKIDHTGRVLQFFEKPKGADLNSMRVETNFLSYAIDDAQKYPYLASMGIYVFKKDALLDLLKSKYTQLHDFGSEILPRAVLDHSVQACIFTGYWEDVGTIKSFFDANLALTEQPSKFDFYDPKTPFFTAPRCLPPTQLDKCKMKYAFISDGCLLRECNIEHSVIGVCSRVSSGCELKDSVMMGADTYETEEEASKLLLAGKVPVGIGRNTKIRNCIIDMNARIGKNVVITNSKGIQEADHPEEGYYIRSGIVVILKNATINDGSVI
Description: as §1, §2, §3

[4] = test system: ADP-glucose pyrophosphorylase (AGPase) MP/SH2, mosaic small subunit MP (first 200 amino acids of maize BT2 and last 275 amino acids of potato tuber small …); settings: MP/SH2, varying ATP, mean±standard deviation
Description: AGPase was desalted by using Zeba Micro Desalt Spin Columns (Pierce) before assaying. AGPase was exchanged into 50 mM HEPES, 5 mM MgCl2, 0.5 mM EDTA and 0.5 mg/mL BSA (for stability).
The reaction was stopped by boiling for 2 min. PPi was estimated by coupling the reaction to a reduction in NADH concentration using 300 μl of coupling reagent. The coupling reagent contained 25 mM imidazole pH 7.4, 4 mM MgCl2, 1 mM EDTA, 0.2 mM NADH, 0.725U aldolase, 0.4U triose phosphate isomerase, 0.6U glycerophosphate dehydrogenase, 1 mM fructose 6-phosphate and 0.8 μg of pyrophosphate dependent phosphofructokinase (PPi-PFK). […] NADH concentration was estimated by absorbance at 340 nm. PPi concentration was calculated by a standard curve developed by using various amounts of PPi instead of AGPase. […] The kinetic constants of AGPase were calculated by Prism 4.0 (Graph Pad, San Diego Calif.).
All other values are expressed as mean±standard deviation. The specific activity of AGPase in the absence of 3-PGA is expressed as a percentage of the specific activity in the presence of 10 mM of 3-PGA (mean±standard error).

[5] = test system: E. coli cells; experiment: Glycogen produced by E. coli cells expressing AGPase subunits; assay type: cell-based; settings: subunit expressed with SH2 or alone (homotetramer)
Source text: A bacterial expression system (Iglesias et al., 1993) allowed us to randomly mutagenize maize endosperm AGPase genes and score AGPase activity in a fast and efficient way by exposing plates to iodine vapors as described below. The E. coli system is ideal for studying plant AGPases for a number of reasons discussed in Georgelis et al. (2007).
Glycogen synthesis was detected by production of brown staining colonies following exposure to iodine vapors. […] (Govons et al., 1969). The colonies were exposed to iodine vapors for 1 min. […] AGPase variants staining darker than wildtype were selected for further study.
Glycogen quantitation was performed by phenol reaction (Hanson and Phillips, 1981). In brief, glycogen was extracted from 1.6 ml of E. coli cells (OD600=2.0) grown in LB containing 2% w/v glucose by boiling for 3 hours in 50% w/v KOH. Glycogen was then precipitated by adding ethanol to 70% v/v and centrifuging at 10000×g for 10 min. After pellet drying, 200 μl de-ionized water, 200 μl of 5% w/v phenol and 1 mL of concentrated sulfuric acid were added. Glycogen was estimated by the absorbance at 488 nm.

[6] = target: T3, SH2 (Zea mays, UniProt P55241); experiment: Yeast two hybrid, quantitative β-galactosidase assay of subunit-subunit interactions; assay type: cell-based, maize; settings: SH2 as bait, small subunit as prey; listed as TI
T3 construct: expressed in transfected cells
T3 sequence (P55241 46-516): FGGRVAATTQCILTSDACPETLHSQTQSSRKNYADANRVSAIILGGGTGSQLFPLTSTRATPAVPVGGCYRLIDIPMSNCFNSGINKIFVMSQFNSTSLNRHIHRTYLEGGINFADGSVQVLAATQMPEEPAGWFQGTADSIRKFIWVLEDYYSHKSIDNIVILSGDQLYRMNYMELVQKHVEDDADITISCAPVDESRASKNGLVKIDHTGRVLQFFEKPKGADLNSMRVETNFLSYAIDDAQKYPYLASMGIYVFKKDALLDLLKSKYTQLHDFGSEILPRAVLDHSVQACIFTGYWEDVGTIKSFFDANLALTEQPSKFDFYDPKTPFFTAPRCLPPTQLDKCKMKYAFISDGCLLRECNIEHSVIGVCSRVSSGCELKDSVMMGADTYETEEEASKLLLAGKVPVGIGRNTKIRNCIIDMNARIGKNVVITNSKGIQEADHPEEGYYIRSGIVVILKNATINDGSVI
Description: Yeast transformations and a β-galactosidase assay were conducted as described by Greene and Hannah (1998b). The only modification was the use of pGBKT7 and pGADT7 as vectors for the bait and the prey respectively. pGBKT7-53 and pGADT7-T plasmids were used as a positive control.

[7] = test system: maize endosperm AGPase; experiment: Kinetic characterization of purified recombinant AGPase variants, forward direction; assay type: biochemical; settings: compared to BT2/SH2
Description: as §1, §2, §3

**Q.** What does the source list for `Nc1ncnc2c1ncn2[C@@H]1O[C@H](COP(=O)(O)OP(=O)(O)OP(=O)(O)O)[C@@H](O)[C@H]1O` [ATP]?
**A.** kcat (ATP) ([1]; BT2-TI/SH2, varying ATP, G-1-P saturating (2 mM), mean±standard deviation): 29.112 s⁻¹; Km (compared with BT2/SH2, in words) ([1]; BT2-TI/SH2 versus BT2/SH2): indistinguishable from BT2/SH2; Km ([1]; read-out: Km ATP, BT2-TI/SH2, forward direction, pH 7.4, 37° C., varying ATP, mean±standard deviation): 146 µM; Km ([2]; forward direction, pH 7.4, 37° C., read-out: Km ATP): 112 µM; kcat (ATP) ([2]; G-1-P saturating (2 mM)): 49.031 s⁻¹; Km ([3]; read-out: Km ATP, forward direction, pH 7.4, 37° C., varying ATP, mean±standard deviation): 102 µM; kcat (ATP) ([3]; varying ATP, G-1-P saturating (2 mM), mean±standard deviation): 43.321 s⁻¹; kcat (ATP) ([4]; G-1-P saturating (2 mM)): 69.337 s⁻¹; Km ([4]; read-out: Km ATP, forward direction, pH 7.4, 37° C.): 133 µM

B1: MP-TI: MP mosaic small subunit with the amino acid change of TI introduced (protein)
chain: MDMALASKASPPPWNATAAEQPIPKRDKAAANDSTYLNPQAHDSVLGIILGGGAGTRLYPLTKKRAKPAVPLGANYRLIDIPVSNCLNSNISKIYVLTQFNSASLNRHLSRAYGSNIGGYKNEGFVEVLAAQQSPDNPNWFQGTADAVRQYLWLFEEHNVMEFLILAGDHLYRMDYEKFIQAHRETNADITVAALPMDEKRATAFGLMKIDEEGRIIEFAEKPQGEQLQAMKVDTTILGLDDKRAKEMPFIASMGIYVISKDVMLNLLRDKFPGANDFGSEVIPGATSLGMRVQAYLYDGYWEDIGTIEAFYNANLGITKKPVPDFSFYDRSAPIYTQPRYLPPSKMLDADVTDSVIGEGCVIKNCKIHHSVVGLRSCISEGAIIEDSLLMGADYYETDADRKLLAAKGSVPIGIGKNCHIKRAIIDKNARIGDNVKIINKDNVQEAARETDGYFIKSGIVIVIKDALIPSGIII
modifications: zea mays MP-TI protein
notes: MP mosaic small subunit with the amino acid change of TI introduced
**Q.** Which “glycogen produced by E. coli cells” value [5] does the source give for B1 here?
**A.** yielded an equal amount of glycogen as MP/SH2

B2: BT2-TI: BT2 small subunit with change of amino acid 462 from threonine to isoleucine (protein)
chain: MDMALASKASPPPWNATAAEQPIPKRDKAAANDSTYLNPQAHDSVLGIILGGGAGTRLYPLTKKRAKPAVPLGANYRLIDIPVSNCLNSNISKIYVLTQFNSASLNRHLSRAYGSNIGGYKNEGFVEVLAAQQSPDNPNWFQGTADAVRQYLWLFEEHNVMEFLILAGDHLYRMDYEKFIQAHRETNADITVAALPMDEKRATAFGLMKIDEEGRIIEFAEKPKGEQLKAMMVDTTILGLDDVRAKEMPYIASMGIYVFSKDVMLQLLREQFPEANDFGSEVIPGATSIGKRVQAYLYDGYWEDIGTIAAFYNANLGITKKPIPDFSFYDRFAPIYTQPRHLPPSKVLDADVTDSVIGEGCVIKNCKINHSVVGLRSCISEGAIIEDSLLMGADYYETEADKKLLAEKGGIPIGIGKNSCIRRAIIDKNARIGDNVKILNADNVQEAAMETDGYFIKGGIVIVIKDALLPSGTVI
modifications: zea mays BT2 protein
notes: BT2 small subunit with change of amino acid 462 from threonine to isoleucine
**Q.** How did the “strength of subunit-subunit interactions” value [6] turn out when B2 was run?
**A.** did not increase the strength of subunit-subunit interactions; also recorded: does not strengthen the subunit-subunit interactions

**Q.** And the “kcat lower than kcat of BT2/SH2” value [7]?
**A.** 30%
